Assay: molar heat capacity at constant pressure
Conditions: 101.33 kPa, Crystal, Vacuum adiabatic calorimetry

O=C[C@H](O)[C@@H](O)[C@H](O)CO [D-xylose]
Conditions | molar heat capacity at constant pressure [J/K/mol]
0.5 K | 0.0003448
1 K | 0.0013
1.5 K | 0.003533
1.9 K | 0.006645
2 K | 0.007825
2.04 K | 0.008242
2.083 K | 0.008788
2.243 K | 0.01097
2.3 K | 0.01187
2.472 K | 0.01471
2.5 K | 0.01512
2.538 K | 0.01596
2.632 K | 0.01783
2.787 K | 0.02124
2.901 K | 0.02401
3 K | 0.02656
3.078 K | 0.02907
3.204 K | 0.03288
3.413 K | 0.04037
3.5 K | 0.04351
3.544 K | 0.04525
3.773 K | 0.05561
3.939 K | 0.06374
4 K | 0.06758
4.203 K | 0.07931
4.383 K | 0.09097
4.5 K | 0.1006
4.66 K | 0.1124
4.87 K | 0.1305
5 K | 0.1446
5.179 K | 0.1619
5.436 K | 0.1916
5.5 K | 0.2018
5.775 K | 0.2386
6 K | 0.2744
6.082 K | 0.2866
6.466 K | 0.3591
6.5 K | 0.3648
6.745 K | 0.4181
7 K | 0.4752
7.159 K | 0.5189
7.497 K | 0.6119
7.5 K | 0.6076
7.959 K | 0.7584
8 K | 0.7638
8.353 K | 0.8969
8.5 K | 0.945
8.863 K | 1.101
9 K | 1.152
9.3 K | 1.292
9.5 K | 1.385
9.864 K | 1.569
10 K | 1.644
10.35 K | 1.83
10.97 K | 2.212
11 K | 2.219
11.52 K | 2.546
12 K | 2.871
12.19 K | 2.736
12.72 K | 3.408
13 K | 3.59
13.56 K | 4.028
14 K | 4.364
14.25 K | 4.551
15 K | 5.182
15.07 K | 5.238
15.84 K | 5.872
16 K | 6.036
16.59 K | 6.471
17 K | 6.917
17.61 K | 7.437
18 K | 7.819
18.42 K | 8.194
18.99 K | 8.794
19 K | 8.734
20 K | 9.657
20.27 K | 9.969
21.17 K | 10.74
22.58 K | 12.06
23.64 K | 13.08
25 K | 14.25
25.13 K | 14.39
26.29 K | 15.41
27.98 K | 16.85
29.32 K | 17.97
30 K | 18.55
31.15 K | 19.42
32.68 K | 20.56
34.69 K | 22.14
35 K | 22.47
36.33 K | 23.55
38.59 K | 25.09
40 K | 26.03
40.53 K | 26.51
42.93 K | 27.98
45 K | 29.36
45.13 K | 29.46
47.76 K | 31.18
50 K | 32.58
50.2 K | 32.51
53.12 K | 34.56
55 K | 35.68
55.82 K | 36.43
59.09 K | 38.3
60 K | 38.82
62.21 K | 40.2
65 K | 41.94
65.77 K | 42.39
69.15 K | 44.37
70 K | 45.05
73.12 K | 46.67
75 K | 48.14
76.88 K | 49.05
80 K | 51.21
81.26 K | 51.82
85 K | 54.27
85.51 K | 54.66
90 K | 57.3
90.3 K | 57.7
95 K | 60.32
95.15 K | 60.59
100 K | 63.33
100.35 K | 63.68
105.25 K | 66.61
110 K | 69.28
110.61 K | 69.55
115.43 K | 72.27
120 K | 75.18
120.64 K | 75.36
125.54 K | 78.61
130 K | 81.02
130.77 K | 81.56
135.74 K | 84.75
140 K | 86.83
140.87 K | 87.47
145.76 K | 90.11
150 K | 92.61
151.03 K | 93.15
155.98 K | 95.92
160 K | 98.36
161.11 K | 99.11
166.15 K | 102.13
170 K | 104.1
171.25 K | 104.92
176.34 K | 107.5
180 K | 109.83
181.48 K | 110.56
186.59 K | 113.51
190 K | 115.56
191.69 K | 116.09
196.81 K | 119.53
200 K | 121.29
201.94 K | 122.16
207.17 K | 125.24
210 K | 127.02
212.26 K | 128.07
217.5 K | 130.91
220 K | 132.76
222.61 K | 134.51
227.74 K | 137.35
230 K | 138.51
232.87 K | 140.48
237.95 K | 142.93
240 K | 144.27
243.02 K | 146.31
248.07 K | 148.9
250 K | 150.04
253.18 K | 152.43
258.24 K | 154.94
260 K | 155.83
263.22 K | 158.02
268.36 K | 160.56
270 K | 161.64
273.15 K | 163.47
273.41 K | 163.59
278.46 K | 166.47
280 K | 167.46
283.51 K | 169.47
288.47 K | 172.37
290 K | 173.3
293.61 K | 175.31
298.15 K | 178.08
298.67 K | 177.87
300 K | 179.16
303.66 K | 181.61

— the NIST ThermoML archive (doi:10.1016/j.jct.2012.09.028)
